Converted amounts (≈) assume the structure as drawn. “And” between values parts separate entries of the source, which are not always exact repeats. Identical values can stand only once. Like-named read-outs stand apart in the source and are kept apart here.
Columns and labels:
15N neuroblastoma cells = test: Alamar blue viability assay, 15N neuroblastoma; format: cell-based; details: for IC50: cellular viability after 48 hours, compound dissolved in DMSO
Procedure: In order to investigate the anti-cancer potential of compounds represented by formula I-a, 15N neuroblastoma cells lines were treated with compound and assayed for cellular viability after 48 hours. The cellular viability of 15N neuroblastomas treated with compounds 1, 5, 6, 11, and 13 (dissolved in DMSO) are summarized in Table 5 (see Compound 152).
Compounds were tested for anti-cancer properties using the Alamar blue viability assay. Daoy human medulloblastoma cells of 15N neuroblastoma cells were plated at a density of 5000 cells per well of a 96 well plate and cultured in RPMI media supplemented with antibiotics and 5% fetal bovine serum. Cells in culture were incubated with compound for 48 hours after which time Alamar blue was added to the culture media. After 4 hours media was transferred to opaque white plates and fluorescence of transformed alamar blue was measured at excitation 535/emission 595).

Microsomal stability = format: in vitro ADME; details: 1 hr
Du145 (prostate) = test: Clonogenic assay Du145; format: cell-based; details: compound 24 hours, colonies counted after 7-10 days, read-out: ED50 (the source's name)
Procedure: (§1) In this paradigm, Du145 prostate, HCT116 colon, 15N Neuroblastoma, IMR32 Neuroblastoma, Daoy Medulloblastoma, and MDAMB231 breast cells are individually plated and allowed to proliferate for 48 hours. Compound is added to the culture and left on for 24 hours, at which time both compound and dead cells are washed off the plate. Fresh media is added and the cells are allowed to grow for an additional 7-10 days. The remaining healthy cells reproduce and formed localized colonies. These colonies are counted and EC50 values are determined relative to non-treated controls.
(§2) Du145 prostate, HCT116 colon, 15N Neuroblastoma, IMR32 Neuroblastoma, Daoy Medulloblastoma, and MDAMB231 breast cells were plated in 6 well plates and allowed to grow for 5 days._Cells were exposed to compound for 24 hours, the culture media was removed and replaced with fresh media. The cells were kept in cultured for 7-10 days after which colonies were counted and EC50 values were determined relative to non-treated controls.

IMR32 (neuroblastoma) = test: Clonogenic assay IMR32; format: cell-based; details: compound 24 hours, colonies counted after 7-10 days, read-out: ED50 (the source's name)
Procedure: as §1, §2

SCG neurons = details: cited from earlier work
[1] = system: motor neurons found in layer V of the cortex; details: drug concentration 1 μM; malonate; P1 rat motor cortex slices; cited from earlier work
[2] = Stability of solutions/formulations; format: physicochemical
Description: (§3) This is illustrated for compound 15 in Table 7.

[3] = Pharmacokinetics and in vivo conversion of N-acylsulfonamides in rats (SC); parameters: species or system rat; details: subcutaneously, 10 mg/mL
Procedure: When administered to rats subcutaneously, compound 15 (10 mg/mL) is well distributed (Cmax=20 μg/mL in plasma). Conversion of compound 15 to 1 is observed with plasma levels of 1 reaching a Cmax of 0.5-1 μg/mL. Conversion of compound 16 to compound 1 is observed with plasma levels of 1 reaching a Cmax of 3 μg/mL Similar in vivo conversion is observed for select compounds listed in table 5 with whole blood drug concentrations being similar to that of their respective primary sulfonamide sodium salts, represented by formula I-a, administered at the same dose in aqueous 10 wt/vol % HPCD.

log P = format: physicochemical
pH of formulation = format: physicochemical; details: PBS/HPCD (25:75) solution
Description: as §3

[4] = Conversion to primary sulfonamide in liver microsomes; format: in vitro ADME; details: after 60 minutes
Procedure: (§4) Compound 15 is converted to compound 1 in the presence of liver microsomes using the procedure described by Cresteil, T., et al. (Cresteil, T., et al. Am. Soc. Pharm. Exper. Therapeutics, 2002, 30, 438-445). Upwards of 50% conversion is observed after 60 minutes. When incubated with rat primary hepatocytes, the conversion of compounds 15, 37, and 44 to their respective primary sulfonamides, 1, 11, and 13, is observed.

[5] = Conversion to primary sulfonamide in rat primary hepatocytes; format: in vitro ADME; details: 90 minutes
Procedure: as §4

[6] = Solubility in water and formulations
Procedure: Alternatively, the sodium salt can be prepared in situ by dissolving the free acid in phosphate buffered saline (PBS) that has been buffered to a pH of 7.4. The solubility and stability of these solutions can be improved by the use of an aqueous soluble co-solvent such as, but not limited to HPCD. This solubility can be further improved by the addition of surfactants such as PEG 400. In general, the free acid is suspended in 10 wt/vol % HPDC (10 g dissolved in 100 mL water) and treated with 0.5M PBS (pH 7.4) such that the volumes are in a ratio of 75:25.

HCT116 (colon) = test: Clonogenic assay HCT116; format: cell-based; details: compound 24 hours, colonies counted after 7-10 days, read-out: ED50 (the source's name)
Procedure: as §1, §2

15 N (neuroblastoma) = test: Clonogenic assay 15N; format: cell-based; details: compound 24 hours, colonies counted after 7-10 days, read-out: ED50 (the source's name)
Procedure: as §1, §2

Daoy (medulloblastoma) = test: Clonogenic assay Daoy; format: cell-based, human; details: compound 24 hours, colonies counted after 7-10 days, read-out: ED50 (the source's name)
Procedure: as §1, §2

MDAMB231 (breast) = test: Clonogenic assay MDAMB231; format: cell-based; details: compound 24 hours, colonies counted after 7-10 days, read-out: ED50 (the source's name)
Procedure: as §1, §2

[7] = Pharmacokinetics of primary sulfonamides and Na salts (oral, SC); format: in vivo; details: gavage 10 mg/kg
Procedure: HPCD formulations of compounds represented by formula I also display improved pharmacokinetic properties as compared to compounds dissolved in water.
When compound 2 is administered at 10 mg/kg SC excellent plasma drug concentrations are observed_(Cmax=2.0 μg/mL, C1/2=0.8 hrs). […]

Sprague Dawley rats = details: 10 mg/kg, cited from earlier work
RG neurons = details: intra-vitrial injection or SC 10 mg/kg, cited from earlier work
[8] = Taxol induced cell death, read-out: Taxol SCG IC50
[9] = 250 μL 0.5 M PBS + 250 μL 10% HPCD + 500 μL 20% PEG 400

In the case of NS(=O)(=O)c1nn2cc(-c3ccc(Oc4ccc(Cl)cc4)cc3)nc2s1 [Compound 13], the IC50 (15N neuroblastoma cells) is reported as 10 µM, the “Microsomal Stability (1 hr)” value (Microsomal stability) is reported as 85% and the EC50 (Du145 (prostate)) is reported as 8 µM. The EC50 (IMR32 (neuroblastoma)) was 0.75 µM, the IC50 (SCG neurons; [8]) was 3 µM and the “protection of SMI-32 labeled motor neurons” value [1] was greater than 80%.

For CC(=O)NS(=O)(=O)c1nn2cc(-c3ccccc3)nc2s1 [Compound 15], the Stability [2, 9] was greater than 4 weeks, the Stability ([2]; 1000 μL 0.5 M PBS) was 1 to 2 days and the “Stability in 10 wt/vol HPCD” value ([2]; PBS/HPCD (25:75) solution) was greater than 4 weeks. For the same molecule, the Cmax in plasma [3] was 20000 ng/mL, the “log P” value (log P) was 2.6 and the pH (pH of formulation) was 7.4. The “conversion to compound 1” value [4] was greater than 50%, the “conversion rate to primary sulfonamide” value [5] was 6% and the dissolution ([6]; 25 mg in 1 mL PEG 400/ethanol (50:50) + ethanolamine (20 μL)) was “clear solution”. The clear solution concentration ([6]; 10 wt/vol % HPCD + 1 equiv of ethanolamine, dimethylaminoethanol or 4-aminopyridine) was 5 to 10 mg/mL, the solubility [6, 9] was 25000 µg/mL and the solubility ([6]; 250 μL 0.5 M PBS + 750 μL 10% HPCD) was 10000 µg/mL. For the same molecule, the “Solubility in 10 wt/vol HPCD” value ([6]; PBS/HPCD (25:75) solution) was 10000 µg/mL (≈ 31 mM).

For NS(=O)(=O)c1nn2cc(-c3ccc(-c4cccc(C(F)(F)F)c4)cc3)nc2s1 [Compound 11], the “fold increase in activity over compound 1” value (15N neuroblastoma cells; 15N neuroblastoma) was 10 fold, the IC50 (15N neuroblastoma cells) was 2 µM and the “Microsomal Stability (1 hr)” value (Microsomal stability) was 60%. The EC50 (HCT116 (colon)) was 1.5 µM, the EC50 (15 N (neuroblastoma)) was 0.75 µM and the EC50 (Daoy (medulloblastoma)) was 1 µM. The EC50 (MDAMB231 (breast)) was 1 µM and the IC50 (SCG neurons; [8]) was 2 µM.

For NS(=O)(=O)c1nn2cc(-c3ccccc3)nc2s1 [Compound 1], the oral bioavailability ([7]; CMC/Tween 80 (semi-)suspension) was “moderate”, the Cmax ([7]; aqueous 0.5 wt/vol % CMC/0.5 wt/vol % Tween 80 (semi-)suspension) was 200 ng/mL and the IC50 (15N neuroblastoma cells) was ~20 µM and 20 µM. For the same molecule, the “Microsomal Stability (1 hr)” value (Microsomal stability) was 90%, the EC50 (Du145 (prostate)) was 8 µM and the EC50 (HCT116 (colon)) was 12 µM. It also gave an EC50 (15 N (neuroblastoma)) of 7 µM, an EC50 (Daoy (medulloblastoma)) greater than 5 µM and an EC50 (MDAMB231 (breast)) greater than 5 µM. For the same molecule, the IC50 (SCG neurons; [8]) was 7 µM, the IC50 (SCG neurons; anti-NGF induced cell death, read-out: anit-NGF SCG IC50) was 22 µM and the IC50 (SCG neurons; cisplatin induced cell death, read-out: cisplatin SCG IC50) was 5 µM. The IC50 (SCG neurons; vincristine induced cell death, read-out: vincristine SCG IC50) was 10 µM, the weight gain (Sprague Dawley rats; Taxol 9 mg/kg twice weekly for 3 weeks) was “normal weight gain” and the “loss in foot pad contact” value (Sprague Dawley rats; Taxol alone 46% loss) was 23%. For the same molecule, the “histology of RG layer” value (RG neurons) was “healthy RG layers” and the “electro-retinogram (ERG)” value (RG neurons; versus vehicle) was “significant improvements”.

Source: patent US20070112043A1, “Acylated and non-acylated imidazo[2,1-b]-1,3,4,-thiadiazole-2-sulfonamides, and uses thereof” (priority 2003, published 2007)
